Results published in ChEMBL document CHEMBL1155421, “Evaluation of a 4-aminopiperidine replacement in several series of CCR5 antagonists” (Bioorg Med Chem Lett, 2010).

Tests used:
[1] = biological target: C-C chemokine receptor type 5 (Homo sapiens, UniProt P51681); experiment: Displacement of […] from CCR5 receptor receptors expressed in CHO cells; assay type: cell-based
[2] = system: Human immunodeficiency virus 1; experiment: Antiviral activity against HIV1 NLBal infected JC53BL cells assessed as inhibition of replication by luciferase reporter assay; assay type: functional, organism-based; settings: Human immunodeficiency virus 1, NLBal

Chain of C-C chemokine receptor type 5 (P51681 whole entry): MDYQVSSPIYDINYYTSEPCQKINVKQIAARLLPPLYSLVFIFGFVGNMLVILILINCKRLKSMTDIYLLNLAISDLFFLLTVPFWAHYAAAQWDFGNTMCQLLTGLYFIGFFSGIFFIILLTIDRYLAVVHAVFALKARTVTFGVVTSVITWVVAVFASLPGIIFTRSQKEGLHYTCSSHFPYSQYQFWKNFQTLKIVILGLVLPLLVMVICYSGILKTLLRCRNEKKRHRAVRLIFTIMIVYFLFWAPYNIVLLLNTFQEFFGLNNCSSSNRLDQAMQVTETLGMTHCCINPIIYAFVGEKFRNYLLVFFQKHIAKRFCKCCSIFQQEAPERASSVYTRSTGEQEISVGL

Row | IC50 [1] [nM] | IC50 [2] [nM] | Structure (SMILES)
1 | > 500 | > 625 | COC[C@@H](c1ccc(C(F)(F)F)cc1)N1CCN(C2C[C@@H]3CN(C(=O)c4c(C)ncnc4C)C[C@@H]3C2)C[C@@H]1C (some centres undefined)
2 | > 500 | > 625 | COC[C@@H](c1ccc(C(F)(F)F)cc1)N1CCN(C2C[C@@H]3CN(C(=O)c4c(C)ccnc4C)C[C@@H]3C2)C[C@@H]1C (some centres undefined)
3 | > 500 | > 625 | COC[C@@H](c1ccc(C(F)(F)F)cc1)N1CCN(C2C[C@@H]3CN(C(=O)c4c(C)cc(C#N)nc4C)C[C@@H]3C2)C[C@@H]1C (some centres undefined)
4 | 92 | > 625 | CCO[C@H]1Cc2cc(C(F)(F)F)ccc2[C@@H]1N1CCN(C2C[C@@H]3CN(C(=O)c4c(C)ncnc4C)C[C@@H]3C2)C[C@@H]1C (some centres undefined)
5 | 98 | 357 | CCO[C@H]1Cc2cc(C(F)(F)F)ccc2[C@@H]1N1CCN(C2C[C@@H]3CN(C(=O)c4c(C)ccnc4C)C[C@@H]3C2)C[C@@H]1C (some centres undefined)
6 | 45 | 59 | CCO[C@H]1Cc2cc(C(F)(F)F)ccc2[C@@H]1N1CCN(C2C[C@@H]3CN(C(=O)c4c(C)cc(C#N)nc4C)C[C@@H]3C2)C[C@@H]1C (some centres undefined)
7 | 14 | 262 | CCCC[C@H]1CN(CC2CCOCC2)C(=O)OC12CCN(C1C[C@@H]3CN(C(=O)c4c(C)ncnc4C)C[C@@H]3C1)CC2 (some centres undefined)
8 | 15 | 9 | CCCC[C@H]1CN(CC2CCOCC2)C(=O)OC12CCN(C1C[C@@H]3CN(C(=O)c4c(C)cc(C#N)nc4C)C[C@@H]3C1)CC2 (some centres undefined)
9 | 25 | ≥ 625 | CCCC[C@H]1CN(CC2CCOCC2)C(=O)OC12CCN(C1(C)C[C@H]3CN(C(=O)c4c(C)ncnc4C)C[C@H]3C1)CC2 (some centres undefined)
10 | 61 | 18 | CCCC[C@H]1CN(CC2CCOCC2)C(=O)OC12CCN(C1(C)C[C@H]3CN(C(=O)c4c(C)cc(C#N)nc4C)C[C@H]3C1)CC2 (some centres undefined)
11 | 44 | 19 | CCCC[C@H]1CN(C[C@H]2CC[C@H](OCC)CC2)C(=O)OC12CCN(C1C[C@@H]3CN(C(=O)c4c(C)ncnc4C)C[C@@H]3C1)CC2 (some centres undefined)
12 | 34 | 4 | CCCC[C@H]1CN(C[C@H]2CC[C@H](OCC)CC2)C(=O)OC12CCN(C1C[C@@H]3CN(C(=O)c4c(C)ccnc4C)C[C@@H]3C1)CC2 (some centres undefined)
13 | 23 | 12 | CCCC[C@H]1CN(C[C@H]2CC[C@H](OC(C)C)CC2)C(=O)OC12CCN(C1C[C@@H]3CN(C(=O)c4c(C)ncnc4C)C[C@@H]3C1)CC2 (some centres undefined)
14 | 27 | 12 | CCCC[C@H]1CN(C[C@H]2CC[C@H](OC3CC3)CC2)C(=O)OC12CCN(C1C[C@@H]3CN(C(=O)c4c(C)ncnc4C)C[C@@H]3C1)CC2 (some centres undefined)
15 | 4 |  | CCCC[C@H]1CN(CC2CCOCC2)C(=O)OC12CCN(C1(C)CCN(C(=O)c3c(C)ncnc3C)CC1)CC2
